Experimental findings from patent US5292760A, “4-heteroaryl-1,3-benzodiazepines and 2-substituted-α-(heteroaryl)benzeneethanamines” (Hoechst-Roussel Pharmaceuticals Inc., priority 1992, dated 1994) are described below.

Where a name gives a salt, the structure may show the parent alone. Read-outs that look alike come from different tables or passages of the source.

Assay [1] has as its system supramaximal electroshock (SES). Nature of the assay: supramaximal electroshock (SES) assay (anticonvulsant activity). It counts as in vivo, male mouse. The settings on record: Mus musculus, ip, read-out: Anticonvulsant Activity ED50. How it is done:
The Formula III compounds of this invention are useful as anticonvulsants due to their anticonvulsant activity in mammals. Anticonvulsant activity is measured in the male mouse using the supramaximal electroshock (SES) assay described in Arch. Int. Pharmacodyn. 92: 97-107, 1952. Intraperitoneal doses of representative compounds of the invention and their ability to protect from the effect of SES is shown below in Table 2. ED50 values, i.e., the doses at which, within 95% confidence intervals, 50% of the animals are protected are calculated by computerized probit analysis.

Assay [2] concerns Geller Conflict Paradigm in Rats. Nature of the assay: Geller Conflict Paradigm in Rats (anxiolytic activity). It counts as in vivo. The text has this: The intraperitoneal (i.p.) dosages at which the following compounds show anxiolytic activity are: […]
Assay [3] has as its system N-methyl-D-aspartic acid (NMDA)-induced seizures. The assay is described as follows: N-Methyl-D,L-Aspartic Acid Induced Seizure Assay (NMDA protection). As to conditions: Mus musculus, 0.5 h; ip; N-methyl-D,L-aspartic acid 350 mg/kg, sc; total absence of clonic seizures during 30 minutes. It is filed as in vivo, male Swiss Webster mice. How it is done:
In this assay, male Swiss Webster mice (Charles River), 18-25 grams are used. Animals are ordered at 33 to 36 days of age and can be used for 8 days after arrival. They are housed for at least 24 hours in a climate controlled animal colony with food and water available ad libitum. On the day of testing, animals are brought to the laboratory and randomly assigned to groups. N-Methyl-D,L-aspartic acid (350 mg) is dissolved in 10 ml of saline and mixed thoroughly with a homogenizer for 1-2 minutes. Test compounds are prepared in distilled water and, if insoluable, a suitable surfactant is added. For a primary screen the test compound is administered at 60 mg/kg, ip (10 ml/kg), to groups of ten mice, 30 minutes prior to challenge with N-methyl-D,L-aspartic acid (350 mg/kg, sc). After N-Methyl-D,L-aspartic acid administration animals are placed individually in clear plastic cyclinders (12"×5.5"×1/4") and then observed for clonic seizures. N-methyl-D,L-aspartic acid will produce clonic seizures, and sometimes tonic seizures and death, in vehicle control animals.
A clonic convulsion is defined as a single episode of clonic spasms of a least a 3 second duration. A tonic seizure is defined as a brief period of hindlimb flexion followed by a prolonged period of hindlimb extension. The mice treated with N-methyl-D,L-aspartic acid are considered "protected" when there is a total absence of clonic seizures during the 30 minute observation period.
Test compounds are run at the time of peak effect. Three or more doses are used (10 animals per group).
Data is calculated by the method of J. T. Litchfield, Jr. and F. Wilcoxon. A test should be repeated if 40% of vehicle control animals are protected. The normalized percent formula is used when 10-30% of the vehicle control animals are protected.
The normalized percent protection is calculated using the following formula: […]

For assay [4], the system named is tetrabenazine induced ptosis. Nature of the assay: tetrabenazine induced ptosis assay in mice (antidepressant activity). As to conditions: Mus musculus, ip, read-out: Anti-Depressant Activity ED50. It is filed as in vivo.
Where [5] appears, read: 50% inhibition of ptosis of tetrabenazine-induced depression in mice.

Turning to `CNC(Cc1ccccc1N)c1sccc1C` (stereo not drawn) [2-Amino-N-methyl-α-(3-methyl-2-thienyl)benzeneethanamine], the results for the ED50 in assay [1] and in assay [3] were 4.6 mg/kg and 26.7 mg/kg, respectively. The results for the “Anti-Conflict Response, % Change Compared to Control” value in assay [2] (dose 20 m.g./kg i.p.), in assay [2] (dose 40 m.g./kg i.p.) and in assay [2] (dose 60 m.g./kg i.p.) were “+807%”, “+547%” and “+242%”, respectively.

As for `CNC(Cc1cc(Br)ccc1N)c1sccc1C` (stereo not drawn) [2-Amino-5-bromo-N-methyl-α-(3-methyl-2-thienyl)benzeneethaneamine], in assay [1], the ED50 came out at 9.2 mg/kg. In the case of `CCC1=Nc2ccccc2CC(c2ccsc2)N1C.Cl` (stereo not shown) [4,5-Dihydro-2-ethyl-3-methyl-4-(3-thienyl)-3H-1,3-benzodiazepine hydrochloride], in assay [4] (setting [5]), the ED50 was found to be 8.7 mg/kg. Regarding `CCC1=Nc2ccccc2CC(c2ccncc2)N1C` (stereo not shown) [4,5-Dihydro-2-ethyl-3-methyl-4-(4-pyridinyl)-3H-1,3-benzodiazepine hemihydrate], the ED50 in assay [4] was 6.8 mg/kg. Consider `CCC1=Nc2ccccc2CC(c2cccs2)N1C.Cl` (stereo not shown) [4,5-Dihydro-2-ethyl-3-methyl-4-(2-thienyl)-3H-1,3-benzodiazepine hydrochloride], for which the ED50 in assay [4] (setting [5]) amounted to 4.7 mg/kg. For `CC1=Nc2ccccc2CC(c2ccc(C)s2)N1C` (stereo not shown) [4,5-Dihydro-2,3-dimethyl-4-(5-methyl-2-thienyl)-3H-1,3-benzodiazepine], the ED50 in assay [4] came to 12.2 mg/kg. Regarding `CCC1=Nc2ccccc2CC(c2sccc2C)N1C.Cl.O` (stereo not shown) [4,5-Dihydro-2-ethyl-3-methyl-4-(3-methyl-2-thienyl)-3H-1,3-benzodiazepine hydrochloride monohydrate], the ED50 in assay [4] (setting [5]) came to 5.3 mg/kg. Take `CNC(Cc1ccc(C(F)(F)F)cc1N)c1sccc1C` (stereo not drawn) [2-Amino-N-methyl-α-(3-methyl-2-thienyl)-4-trifluoromethylbenzeneethanamine]: the ED50 in assay [3] is 26.4 mg/kg. For the molecule `CN(C)CCC=C1c2ccccc2COc2ccccc21` [Doxepin, reference compound], in assay [4] (setting [5]), the ED50 is 3.8 mg/kg. For the molecule `CN1C(=O)CN=C(c2ccccc2)c2cc(Cl)ccc21` [Diazepam, reference compound], the “Anti-Conflict Response, % Change Compared to Control” value is reported as “+180%” in assay [2] (dose 10 m.g./kg i.p.), “+453%” in assay [2] (dose 15 m.g./kg i.p.) and “+630%” in assay [2] (dose 20 m.g./kg i.p.). Turning to `NC(CCCP(=O)(O)O)C(=O)O` (stereo not shown) [2-Amino-5-phosphonovaleric acid, reference compound], the median effective dose (ED50) in assay [3] turned out to be 48.5 mg/kg. Consider `Cc1ccsc1C(N)Cc1ccccc1N.Cl.Cl` (stereo not drawn) [2-Amino-α-(3-methyl-2-thienyl)benzeneethanamine dihydrochloride], for which the ED50 in assay [3] amounted to 19 mg/kg. For `CCNC(Cc1ccccc1N)c1sccc1C.Cl.Cl` (stereo not drawn) [2-Amino-N-ethyl-α-(3-methyl-2-thienyl)benzeneethanamine dihydrochloride], the entries for the “Anti-Conflict Response, % Change Compared to Control” value in assay [2] (dose 1 m.g./kg i.p.) and in assay [2] (dose 5 m.g./kg i.p.) were “+100%” and “+70%”, respectively. For the molecule `CNC(Cc1ccccc1N)c1cccs1` (stereo not drawn) [2-Amino-N-methyl-α-(2-thienyl)benzeneethanamine dihydrochloride hemihydrate], the ED50 in assay [1] came to 30.4 mg/kg.

Take `O=C1NC(=O)C(c2ccccc2)(c2ccccc2)N1` [Diphenylhydantoin, reference compound]: in assay [1] (dose protecting 50% of the animals, 95% confidence, probit analysis), the ED50 amounted to 3.9 mg/kg.
